Measured values: patent US6706663B2, “Herbicidal 3-heterocyclic substituted benzisothiazole and benzisoxazole compounds” (Wyeth, priority 2000, dated 2004)

Tests used:
[1] = system: CYPSE (Cyperus serotinus); test: Flooded paddy, preemergence weed control; assay type: in vivo, Rottb.; details: rated 3-4 weeks after treatment, 0-9 rating scale
Summary of the method: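 Herbicidal effect was scored visually on a 0–9 scale against an untreated control 3–4 weeks after treatment. Compounds were applied preemergence as 50/50 v/v aqueous/acetone mixtures into flood water (1.5–3 cm deep over silt loam), at roughly 0.0080 to 0.1250 kg/ha active ingredient.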

[2] = system: IPOHE (Ipomoea hederacea); test: Preemergence herbicidal evaluation; assay type: in vivo, (L.) Jacq.; details: preemergence, rated 4-5 weeks after treatment
[3] = system: ABUTH (Abutilon theophrasti); test: Preemergence herbicidal evaluation; assay type: in vivo, Medic.; details: preemergence, rated 4-5 weeks after treatment
[4] = system: ZEAMX (Corn, Field); test: Preemergence herbicidal evaluation; assay type: in vivo, Zea mays, L.; details: preemergence, rated 4-5 weeks after treatment
[5] = system: TRZAWR (Wheat, Winter, cv Riband); test: Postemergence herbicidal evaluation; assay type: in vivo, Triticum aestivum
Summary of the method: (§1)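 Seedlings grown for about two weeks were sprayed postemergence and then kept under standard greenhouse care. Injury was rated visually 4–5 weeks after treatment on a 0–9 scale against untreated controls, and ratings from repeat tests were averaged.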

[6] = system: GLXMAW (Soybean, Williams); test: Preemergence herbicidal evaluation; assay type: in vivo, Glycine max, (L.) Merr. cv Williams; details: preemergence, rated 4-5 weeks after treatment
[7] = system: ECHORC (Echinochloa oryzoides); test: Flooded paddy, preemergence weed control; assay type: in vivo, Echinochloa oryzoides (Ard.) Fritsch.; details: rated 3-4 weeks after treatment, 0-9 rating scale
Summary of the method: (§2)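 Scoring used a 0-9 visual scale relative to control. Before that, seeds or propagules were planted shallowly in silt loam and flooded to 1.5–3 cm, a depth maintained throughout, with greenhouse care during the test.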

[8] = system: SAGPY (Sagittaria pygmaea); test: Flooded paddy, preemergence weed control; assay type: in vivo, L.; details: rated 3-4 weeks after treatment, 0-9 rating scale
Summary of the method: as §2

[9] = system: CYPIR (Cyperus iria); test: Flooded paddy, preemergence weed control; assay type: in vivo; details: rated 3-4 weeks after treatment, 0-9 rating scale
Summary of the method: as §2

[10] = system: ECHCG (Echinochloa crus-galli); test: Postemergence herbicidal evaluation; assay type: in vivo, (L.) Beau
Summary of the method: as §1

[11] = system: CASOB (Cassia obtusifolia); test: Preemergence herbicidal evaluation; assay type: in vivo, L.; details: preemergence, rated 4-5 weeks after treatment
Summary of the method: (§3)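 Test compound is applied in aqueous acetone to cups just after seeding. Cups are watered and maintained on greenhouse benches. Each cup is scored 0–9 by eye relative to a control after four to five weeks.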

[12] = system: CHEAL (Chenopodium album); test: Preemergence herbicidal evaluation; assay type: in vivo, L.; details: preemergence, rated 4-5 weeks after treatment
Summary of the method: as §3

[13] = system: AMBEL (Ambrosia artemisifolia); test: Preemergence herbicidal evaluation; assay type: in vivo, L.; details: preemergence, rated 4-5 weeks after treatment
Summary of the method: as §3

[14] = system: MOOVA (Monochoria vaginalis); test: Flooded paddy, preemergence weed control; assay type: in vivo, Presl.; details: rated 3-4 weeks after treatment, 0-9 rating scale
Summary of the method: as §2

[15] = system: ORYSAT (Rice, Tebonnet); test: Flooded paddy, post-transplant rice tolerance; assay type: in vivo, Oryza sativa, (L.) Tebonnet; details: flooded paddy, post-transplant rice, rated 3-4 weeks after treatment, 0-9 rating scale
Summary of the method: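 Visual 0–9 injury rating against a control, covering stand, vigor, malformation, size, chlorosis and overall appearance. Treatment was post-transplant onto flooded containers (water 1.5–3 cm deep, silt loam) holding two ten-day-old cv. Tebonnet seedlings, maintained on greenhouse benches.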

[16] = system: SETVI (Setaria viridis); test: Postemergence herbicidal evaluation; assay type: in vivo, (L.) Beau
Summary of the method: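 Seedlings grown about two weeks were sprayed with compound in 50/50 acetone/water containing 0.5% TWEEN 20, at about 0.0040 to 1.000 kg/ha via nozzle at 40 psi. Plants were kept under greenhouse conditions and visually rated on a 0-9 scale versus control four to five weeks after treatment; replicate tests averaged.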

Cc1csc(-c2nsc3ccc(-n4c(=O)cc(C(F)(F)F)n(C)c4=O)cc23)n1 [Compound 7, 1-methyl-3-[3-(4-methyl-2-thiazolyl)-1,2-benzisothiazol-5-yl]-6-(trifluoromethyl)uracil]
0.0: herbicidal rating, CYPSE ([1]; rate 0.0080 kg/ha) | herbicidal rating, CYPSE ([1]; rate 0.0320 kg/ha) | herbicidal rating, CYPSE ([1]; rate 0.1250 kg/ha) | IPOHE preemergence herbicidal rating ([2]; Rate 0.0620 kg/ha) | IPOHE preemergence herbicidal rating ([2]; Rate 0.1250 kg/ha) | ZEAMX preemergence herbicidal rating ([4]; Rate 0.0620 kg/ha) | GLXMAW preemergence herbicidal rating ([6]; Rate 0.0620 kg/ha) | GLXMAW preemergence herbicidal rating ([6]; Rate 0.1250 kg/ha) | herbicidal rating, ECHORC ([7]; rate 0.0080 kg/ha) | herbicidal rating, SAGPY ([8]; rate 0.0080 kg/ha) | herbicidal rating, SAGPY ([8]; rate 0.0320 kg/ha) | Postemergence herbicidal rating, ECHCG ([10]; rate 0.0320 kg/ha) | Postemergence herbicidal rating, ECHCG ([10]; rate 0.0620 kg/ha) | Postemergence herbicidal rating, ECHCG ([10]; rate 0.1250 kg/ha) | CASOB preemergence herbicidal rating ([11]; Rate 0.0620 kg/ha) | AMBEL preemergence herbicidal rating ([13]; Rate 0.0620 kg/ha) | AMBEL preemergence herbicidal rating ([13]; Rate 0.1250 kg/ha) | AMBEL preemergence herbicidal rating ([13]; Rate 0.2500 kg/ha) | Postemergence herbicidal rating, SETVI ([16]; rate 0.0320 kg/ha) | Postemergence herbicidal rating, SETVI ([16]; rate 0.0620 kg/ha)
8.0: ZEAMX preemergence herbicidal rating ([4]; Rate 0.2500 kg/ha)
8.5: herbicidal rating, CYPIR ([9]; rate 0.0320 kg/ha)
9.0: IPOHE preemergence herbicidal rating ([2]; Rate 0.2500 kg/ha) | ABUTH preemergence herbicidal rating ([3]; Rate 0.0620 kg/ha) | ABUTH preemergence herbicidal rating ([3]; Rate 0.1250 kg/ha) | ABUTH preemergence herbicidal rating ([3]; Rate 0.2500 kg/ha) | herbicidal rating, ECHORC ([7]; rate 0.1250 kg/ha) | herbicidal rating, CYPIR ([9]; rate 0.1250 kg/ha) | CASOB preemergence herbicidal rating ([11]; Rate 0.2500 kg/ha) | CHEAL preemergence herbicidal rating ([12]; Rate 0.0620 kg/ha) | CHEAL preemergence herbicidal rating ([12]; Rate 0.1250 kg/ha) | CHEAL preemergence herbicidal rating ([12]; Rate 0.2500 kg/ha) | herbicidal rating, MOOVA ([14]; rate 0.0080 kg/ha) | herbicidal rating, MOOVA ([14]; rate 0.0320 kg/ha) | herbicidal rating, MOOVA ([14]; rate 0.1250 kg/ha)
1.0: herbicidal rating, SAGPY ([8]; rate 0.1250 kg/ha)
5.5: Postemergence herbicidal rating, TRZAWR ([5]; rate 0.0620 kg/ha)
3.0: CASOB preemergence herbicidal rating ([11]; Rate 0.1250 kg/ha) | herbicidal rating, ORYSAT (rice tolerance) ([15]; rate 0.0080 kg/ha)
5.0: herbicidal rating, ECHORC ([7]; rate 0.0320 kg/ha) | herbicidal rating, ORYSAT (rice tolerance) ([15]; rate 0.1250 kg/ha)
7.0: herbicidal rating, CYPIR ([9]; rate 0.0080 kg/ha)
2.0: GLXMAW preemergence herbicidal rating ([6]; Rate 0.2500 kg/ha) | herbicidal rating, ORYSAT (rice tolerance) ([15]; rate 0.0320 kg/ha) | Postemergence herbicidal rating, SETVI ([16]; rate 0.1250 kg/ha)
4.0: ZEAMX preemergence herbicidal rating ([4]; Rate 0.1250 kg/ha)
6.0: Postemergence herbicidal rating, TRZAWR ([5]; rate 0.1250 kg/ha)
4.5: Postemergence herbicidal rating, TRZAWR ([5]; rate 0.0320 kg/ha)

CCc1cc(-c2nsc3ccc(-n4c(=O)cc(C(F)(F)F)n(C)c4=O)cc23)c(CC)s1 [Compound 8, 3-[3-(2,5-diethyl-3-thienyl)-1,2-benzisothiazol-5-yl]-1-methyl-6-(trifluoromethyl)uracil]
3.0: ZEAMX preemergence herbicidal rating ([4]; Rate 0.2500 kg/ha) | Postemergence herbicidal rating, SETVI ([16]; rate 0.0320 kg/ha)
9.0: ABUTH preemergence herbicidal rating ([3]; Rate 0.1250 kg/ha) | ABUTH preemergence herbicidal rating ([3]; Rate 0.2500 kg/ha) | herbicidal rating, ECHORC ([7]; rate 0.0320 kg/ha) | herbicidal rating, ECHORC ([7]; rate 0.1250 kg/ha) | herbicidal rating, CYPIR ([9]; rate 0.0320 kg/ha) | herbicidal rating, CYPIR ([9]; rate 0.1250 kg/ha) | CHEAL preemergence herbicidal rating ([12]; Rate 0.0620 kg/ha) | CHEAL preemergence herbicidal rating ([12]; Rate 0.1250 kg/ha) | CHEAL preemergence herbicidal rating ([12]; Rate 0.2500 kg/ha) | AMBEL preemergence herbicidal rating ([13]; Rate 0.2500 kg/ha) | herbicidal rating, MOOVA ([14]; rate 0.0080 kg/ha) | herbicidal rating, MOOVA ([14]; rate 0.0320 kg/ha) | herbicidal rating, MOOVA ([14]; rate 0.1250 kg/ha)
1.0: IPOHE preemergence herbicidal rating ([2]; Rate 0.2500 kg/ha) | herbicidal rating, ORYSAT (rice tolerance) ([15]; rate 0.0080 kg/ha)
0.0: IPOHE preemergence herbicidal rating ([2]; Rate 0.0620 kg/ha) | IPOHE preemergence herbicidal rating ([2]; Rate 0.1250 kg/ha) | ABUTH preemergence herbicidal rating ([3]; Rate 0.0620 kg/ha) | ZEAMX preemergence herbicidal rating ([4]; Rate 0.0620 kg/ha) | ZEAMX preemergence herbicidal rating ([4]; Rate 0.1250 kg/ha) | GLXMAW preemergence herbicidal rating ([6]; Rate 0.0620 kg/ha) | GLXMAW preemergence herbicidal rating ([6]; Rate 0.1250 kg/ha) | GLXMAW preemergence herbicidal rating ([6]; Rate 0.2500 kg/ha) | herbicidal rating, SAGPY ([8]; rate 0.0080 kg/ha) | herbicidal rating, SAGPY ([8]; rate 0.0320 kg/ha) | herbicidal rating, SAGPY ([8]; rate 0.1250 kg/ha) | CASOB preemergence herbicidal rating ([11]; Rate 0.0620 kg/ha) | CASOB preemergence herbicidal rating ([11]; Rate 0.1250 kg/ha) | CASOB preemergence herbicidal rating ([11]; Rate 0.2500 kg/ha) | AMBEL preemergence herbicidal rating ([13]; Rate 0.0620 kg/ha)
8.5: herbicidal rating, CYPIR ([9]; rate 0.0080 kg/ha)
2.0: herbicidal rating, ECHORC ([7]; rate 0.0080 kg/ha) | Postemergence herbicidal rating, ECHCG ([10]; rate 0.0320 kg/ha) | Postemergence herbicidal rating, ECHCG ([10]; rate 0.0620 kg/ha) | AMBEL preemergence herbicidal rating ([13]; Rate 0.1250 kg/ha)
4.0: Postemergence herbicidal rating, TRZAWR ([5]; rate 0.0320 kg/ha) | Postemergence herbicidal rating, SETVI ([16]; rate 0.0620 kg/ha)
2.7: herbicidal rating, ORYSAT (rice tolerance) ([15]; rate 0.1250 kg/ha)
5.0: Postemergence herbicidal rating, TRZAWR ([5]; rate 0.0620 kg/ha)
4.5: herbicidal rating, CYPSE ([1]; rate 0.1250 kg/ha)
1.5: herbicidal rating, ORYSAT (rice tolerance) ([15]; rate 0.0320 kg/ha)
